Target: T1, human RXFP1 (Homo sapiens, UniProt Q9HBX9)
T1 construct: expressed in transfected cells
T1 sequence (Q9HBX9 1-757): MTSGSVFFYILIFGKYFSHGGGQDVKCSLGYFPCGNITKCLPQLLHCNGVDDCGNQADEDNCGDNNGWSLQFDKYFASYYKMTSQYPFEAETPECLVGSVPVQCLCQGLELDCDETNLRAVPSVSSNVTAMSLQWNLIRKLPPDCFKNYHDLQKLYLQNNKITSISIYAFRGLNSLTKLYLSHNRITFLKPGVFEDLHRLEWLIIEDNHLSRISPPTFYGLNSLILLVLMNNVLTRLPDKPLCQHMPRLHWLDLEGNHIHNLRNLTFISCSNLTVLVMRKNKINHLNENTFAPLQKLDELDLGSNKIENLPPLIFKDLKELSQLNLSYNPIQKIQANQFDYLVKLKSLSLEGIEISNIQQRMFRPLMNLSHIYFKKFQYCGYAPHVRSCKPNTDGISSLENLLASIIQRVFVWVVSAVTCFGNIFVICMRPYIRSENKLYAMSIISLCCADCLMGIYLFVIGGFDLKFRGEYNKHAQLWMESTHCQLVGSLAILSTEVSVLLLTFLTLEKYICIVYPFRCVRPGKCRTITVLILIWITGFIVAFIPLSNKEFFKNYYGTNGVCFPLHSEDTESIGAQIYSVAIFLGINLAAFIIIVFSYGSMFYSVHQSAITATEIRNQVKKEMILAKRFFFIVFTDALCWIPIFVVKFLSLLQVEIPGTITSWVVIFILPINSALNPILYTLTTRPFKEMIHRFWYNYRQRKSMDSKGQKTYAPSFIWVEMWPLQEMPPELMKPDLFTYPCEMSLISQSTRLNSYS
Experiment: hRXFP1 HEK293 cAMP assay (HTRF)
Format: cell-based
Conditions: HEK293 cells stably expressing human RXFP1, 30 min at room temperature
Summary of the method: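 Potency and activity come from a four-parameter logistic fit of cAMP against compound concentration, tested from 0.010 nM up to 50 μM. The assay uses HEK293 cells stably expressing human RXFP1, incubated 30 min at ambient temperature with phosphodiesterase inhibitor IBMX present.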

| Compound | EC50 [nM] |
| --- | --- |
| COc1cc(F)c(O[C@H]2CC[C@](C)(C(=O)O)CC2)cc1C(=O)N[C@@H]1C2CCC(/C2=C/C2CC2)[C@@H]1C(=O)Nc1ccc(F)c(C(F)(F)F)c1 (stereo partly drawn) [Example 375, (1R,4r)-4-(5-(((1R,2R,3S,4R,Z)-7-(cyclopropyl-methylene)-3-((4-fluoro-3-(trifluoromethyl)phenyl)carbamoyl)bicyclo[2.2.1]heptan-2-yl)carbamoyl)-2-fluoro-4-methoxyphenoxy)-1-methylcyclohexane-1-carboxylic acid] | 1.3 |
| COc1ccc(C23CCC(C(C)(C)O)(CC2)CC3)cc1C(=O)N[C@H]1[C@@H](C(=O)Nc2ccc(F)c(C(F)(F)F)c2)[C@H]2CC[C@@H]1/C2=C\C1CC1 [Example 275, (1R,2S,3R,4R,7Z)-7-(cyclopropylmethyl-idene)-N-[4-fluoro-3-(trifluoromethyl)phenyl]-3-{5-[4-(2-hydroxypropan-2-yl)bicyclo[2.2.2]octan-1-yl]-2-methoxybenzamido} bicyclo[2.2.1]heptane-2-carboxamide] | 41.8 |
| COc1ccc(S(=O)(=O)N2CCOCC2)cc1C(=O)NC1C2CCC(/C2=C/C(F)(F)F)[C@@H]1C(=O)Nc1ccc(F)c(C(F)(F)F)c1 (stereo partly drawn) [Example 199, (2S,3R,7Z)-N-[4-fluoro-3-(trifluoromethyl)phe-nyl]-3-[2-methoxy-5-(morpholine-4-sulfonyl)benzamido]-7-(2,2,2-triflurooethylidene)bi-cyclo[2.2.1]heptane-2-carboxamide] | 719 |
| COc1ccc(/C=C/C(=O)N2CC3CCC(C2)O3)cc1C(=O)N[C@H]1[C@@H](C(=O)Nc2ccc(F)c(C(F)(F)F)c2)[C@H]2CC[C@@H]1/C2=C\C(F)(F)F [Example 311, (1R,2S,3R,4R,7Z)-N-[4-fluoro-3-(trifluoromethyl)phenyl]-3-{2-methoxy-5-[(1E)-3-{8-oxa-3-azabicyclo[3.2.1]octan-3-yl}-3-oxoprop-1-en-1-yl]benzamido}-7-(2,2,2-trifluoroethylidene) bicyclo[2.2.1]heptane-2-carboxamide] | 90.9 |
| COc1ccc(/C=C/C(N)=O)cc1C(=O)N[C@@H]1C2CCC(/C2=C/C(F)(F)F)[C@@H]1C(=O)Nc1ccc(F)c(C(F)(F)F)c1 (stereo partly drawn) [Example 132, (2S,3R,7Z)-3-{5-[(1E)-2-carbamoyleth-1-en-1-yl]-2-methoxybenzamido}-N-[4-fluoro-3-(trifluoromethyl)phe-nyl]-7-(2,2,2-trifluoroethylidene)bi-cyclo[2.2.1]heptane-2-carboxamide] | 380 |
| COc1ccc(CC(C)CO)cc1C(=O)N[C@@H]1C2CCC(/C2=C/C(F)(F)F)[C@@H]1C(=O)Nc1ccc(F)c(C(F)(F)F)c1 (single isomer, unassigned) [Example 66] | 142 |
| COc1ccc(CCC(C)C)cc1C(=O)N[C@@H]1C2CCC(/C2=C/C(F)(F)F)[C@@H]1C(=O)Nc1ccc(F)c(C(F)(F)F)c1 (some centres unmarked) [Example 83] | 1710 |
| COc1ccc(C(=O)N2C3CCC2COC3)cc1C(=O)N[C@H]1[C@@H](C(=O)Nc2ccc(F)c(C(F)(F)F)c2)[C@H]2CC[C@@H]1/C2=C\C1CC1 [Example 258, (1R,2S,3R, 4R,7Z)-7-(cyclopropyl-methylidene)-N-[4-fluoro-3-(trifluoromethyl)phenyl]-3-(2-methoxy-5-{3-oxa-8-azabicyclo [3.2.1]octane-8-carbonyl}benzamido) bicyclo[2.2.1] heptane-2-carboxamide] | 32.9 |
| (1R,4R,7Z)-N-[4- fluoro-3- (trifluoromethyl) phenyl]-3-[5-(3- hydroxypropyl)-2- methoxybenzamido]- 7-[(oxolan-3- yl)methylidene] bicyclo[2.2.1] heptane- 2-carboxamide [Example 264] | 459 |
| COc1ccc(S(=O)(=O)CCO)cc1C(=O)N[C@H]1[C@@H](C(=O)Nc2ccc(F)c(C(F)(F)F)c2)[C@H]2CC[C@@H]1/C2=C\C(F)(F)F [Example 4, (1R,2S,3R,4R,Z)—N-(4-fluoro-3-(trifluoromethyl)phenyl)-3-(5-((2-hydroxyethyl)sulfonyl)-2-methoxybenzamido)-7-(2,2,2-trifluoroethylidene) bicyclo[2.2.1]heptane-2-carboxamide] | 337 |
| COc1ccc(S(=O)(=O)Cc2ccccc2)cc1C(=O)N[C@@H]1C2CCC(/C2=C/C(F)(F)F)[C@@H]1C(=O)Nc1ccc(F)c(C(F)(F)F)c1 (stereo partly drawn) [Example 3, (2S,3R,7Z)-N-[4-fluoro-3-(trifluoromethyl)phe-nyl]-3-(2-methoxy-5-phenylmethanesulfo-nylbenzamido)-7-(2,2,2-trifluoroethylidene)bi-cyclo[2.2.1]heptane-2-carboxamide] | 560 |
| (1R,4R,7Z)-7- (cyclopentyl- methylidene)- N-[4-fluoro- 3-(trifluoromethyl) phenyl]-3-[5-(3- hydroxy-3- methylbutyl)-2- methoxybenzamido] bicyclo[2.2.1]heptane- 2-carboxamide [Example 260] | 324 |
| COc1ccc(C2CCC2)cc1C(=O)N[C@H]1[C@@H](C(=O)Nc2ccc(F)c(C(F)(F)F)c2)[C@H]2CC[C@@H]1/C2=C\C(F)(F)F [Example 176, (1R,2S,3R,4R,Z)-3-(5-cyclobutyl-2-methoxybenzamido)-N-(4-fluoro-3-(trifluoromethyl)phenyl)-7-(2,2,2-trifluoroethylidene) bicyclo[2.2.1]heptane-2-carboxamide] | 738 |
| COc1ccc(COC2CCC(OCc3ccccc3)CC2)cc1C(=O)N[C@@H]1C2CCC(/C2=C/C2CC2)[C@@H]1C(=O)Nc1ccc(F)c(C(F)(F)F)c1 (single isomer, unassigned) [Example 23] | 993 |
| COc1ccc(C(=O)N2CCC(S(C)(=O)=O)C2)cc1C(=O)N[C@H]1[C@@H](C(=O)Nc2ccc(F)c(C(F)(F)F)c2)[C@H]2CC[C@@H]1/C2=C\C1CC1 (stereo partly drawn) [Example 257, (1R,2S,3R,4R,7Z)-7-(cyclopropylmethyl-idene)-N-[4-fluoro-3-(trifluoromethyl)phenyl]-3-[5-(3-methanesulfonyl-pyrrolidine-1-carbonyl)-2-methoxybenzamido] bicyclo[2.2.1]heptane-2-carboxamide] | 90.8 |
| COc1ccc(/C=C/C(=O)N2CCO[C@@H](CO)C2)cc1C(=O)N[C@H]1[C@@H](C(=O)Nc2ccc(F)c(C(F)(F)F)c2)[C@H]2CC[C@@H]1/C2=C\C1CC1 [Example 307, (1R,2S,3R,4R,7Z)-7-(cyclopropyl-methylidene)-N-[4-fluoro-3-(trifluoromethyl)phenyl]-3-{5-[(1E)-3-[(2R)-2-(hydroxymethyl)morpholin-4-yl]-3-oxoprop-1-en-1-yl]-2-methoxybenzamido} bicyclo[2.2.1]heptane-2-carboxamide] | 18.5 |
| COc1ccc(COC2CCC(O)CC2)cc1C(=O)N[C@H]1[C@@H](C(=O)Nc2ccc(F)c(C(F)(F)F)c2)[C@H]2CC[C@@H]1/C2=C\C1CC1 (stereo partly drawn) [Example 290, (1R,2S,3R,4R,7Z)-7-(cyclopropyl-methylidene)-N-[4-fluoro-3-(trifluoromethyl)phenyl]-3-(5-{[(4-hydroxycyclohexyl)oxy]methyl}-2-methoxybenzamido) bicyclo[2.2.1]heptane-2-carboxamide] | 76.6 |
| COc1ccc([C@H]2C[C@H](O)C2)cc1C(=O)NC1C2CCC(/C2=C/C2CC2)[C@@H]1C(=O)Nc1ccc(F)c(C(F)(F)F)c1 (stereo partly drawn) [Example 148, (2S,3R,7Z)-7-(cyclopropylmethyli-dene)-N-[4-fluoro-3-(trifluoromethyl)phe-nyl]-3-{2-methoxy-5-[(1r,3r)-3-hydroxycyclobutyl]benzamido}bicyclo [2.2.1]heptane-2-carboxamide] | 6 |
| COc1ccc(S(=O)(=O)N2CCN[C@H](CO)C2)cc1C(=O)N[C@H]1[C@@H](C(=O)Nc2ccc(F)c(C(F)(F)F)c2)[C@H]2CC[C@@H]1/C2=C\C(F)(F)F [Example 212, (1R,2S,3R,4R,7Z)-N-[4-fluoro-3-(trifluoromethyl)phenyl]-3-(5-{[(3S)-3-(hydroxymethyl)piperazin-1-yl]sulfonyl}-2-methoxybenzamido)-7-(2,2,2-trifluoroethylidene) bicyclo[2.2.1] heptane-2-carboxamide] | 589 |
| COc1ccc(C(=O)NC(C)(C)CO)cc1C(=O)N[C@H]1[C@@H](C(=O)Nc2ccc(F)c(C(F)(F)F)c2)[C@H]2CC[C@@H]1/C2=C\C1CC1 [Example 239, N3-[(1R,2R,3S,4R,7Z)-7-(cyclopropyl-methylidene)-3-{[4-fluoro-3-(trifluoromethyl)phenyl]carbamoyl}bicyclo[2.2.1]heptan-2-yl]-N1-(1-hydroxy-2-methylpropan-2-yl)-4-methoxybenzene-1,3-dicarboxamide] | 27.8 |
